Measurements taken from patent US11564394B2, “Distorted gold (I)-phosphine complexes and methods for use as antifungal agents” (University of Kentucky Research Foundation, priority 2019, dated 2023).
pIC50: −log10 of the molar value. Values joined by “and” are separate entries in the source; they are usually repeats but may differ in a detail not shown here. Equal values may be shown once.

Tests used:
[1] = test system: C. albicans ATCC MYA-1003(R) (strain A); format: cell-based, Candida albicans; details: strain A = C. albicans ATCC MYA-1003(R); MIC-0; 48 h at 35° C.
[2] = test system: C. glabrata ATCC 2001 (strain H); test: MIC determination (broth microdilution); format: cell-based, Candida glabrata; details: strain H = C. glabrata ATCC 2001; MIC-0; 48 h at 35° C.
[3] = test system: C. parapsilosis ATCC 22019 (strain J); test: MIC determination (broth microdilution); format: cell-based; details: strain J = C. parapsilosis ATCC 22019; MIC-0; 48 h; listed as printed beside letter K
[4] = test system: C. auris AR Bank # 0384 (strain K); test: MIC determination (broth microdilution); format: cell-based, Candida auris; details: strain K = C. auris AR Bank # 0384; MIC-0; 48 h (CAS read at 24 h); Table 1; also in Table 2
[5] = test system: C. auris AR Bank # 0390 (strain L); test: MIC determination (broth microdilution); format: cell-based, Candida auris; details: strain L = C. auris AR Bank # 0390; MIC-0; 48 h (CAS read at 24 h); Table 1 row printed without letter, below L; also in Table 2
[6] = test system: C. neoformans ATCC MYA-85 (strain M); test: MIC determination (broth microdilution); format: cell-based, Cryptococcus neoformans; details: strain M = C. neoformans ATCC MYA-85; MIC-0; 72 h at 35° C.
[7] = test system: C. neoformans CN1 (strain N); test: MIC determination (broth microdilution); format: cell-based, Cryptococcus neoformans; details: MIC-0, 72 h at 35° C.
[8] = test system: A. nidulans ATCC 38163 (strain Q); test: MIC determination (broth microdilution); format: cell-based, Aspergillus nidulans; details: strain Q = A. nidulans ATCC 38163; MIC-0; 72 h at 35° C.
[9] = test system: A. terreus ATCC MYA-3633 (strain R); format: cell-based, Aspergillus terreus; details: strain R = A. terreus ATCC MYA-3633; MIC-0; 72 h at 35° C.
[10] = test system: F. graminearum 053 (strain T); format: cell-based, Fusarium graminearum; details: strain T = F. graminearum 053; MIC-0; room temperature, 5 days
[11] = test system: C. auris AR Bank # 0382 (strain II); test: MIC determination (broth microdilution); format: cell-based, Candida auris; details: strain II = C. auris AR Bank # 0382; MIC-0; 48 h (CAS read at 24 h)
[12] = test system: C. auris AR Bank # 0386 (strain V); test: MIC determination (broth microdilution); format: cell-based, Candida auris; details: strain V = C. auris AR Bank # 0386; MIC-0; 48 h (CAS read at 24 h)
[13] = test system: C. auris AR Bank # 0387 (strain VI); test: MIC determination (broth microdilution); format: cell-based, Candida auris; details: strain VI = C. auris AR Bank # 0387; MIC-0; 48 h (CAS read at 24 h)
[14] = test system: C. auris AR Bank # 0388 (strain VII); test: MIC determination (broth microdilution); format: cell-based, Candida auris; details: strain VII = C. auris AR Bank # 0388; MIC-0; 48 h (CAS read at 24 h)
[15] = test system: C. auris AR Bank # 0389 (strain VIII); test: MIC determination (broth microdilution); format: cell-based, Candida auris; details: strain VIII = C. auris AR Bank # 0389; MIC-0; 48 h (CAS read at 24 h)
[16] = test system: C. glabrata ATCC 2001 (strain H) pre-formed biofilm; test: Disruption of pre-formed biofilm (XTT); format: cell-based, Candida glabrata; details: for Pre-formed biofilm SMIC90: biofilm treated at 24 h, XTT
[17] = test system: C. auris AR Bank # 0390 (strain L) pre-formed biofilm; format: cell-based, Candida auris; details: biofilm treated at 24 h, XTT
[18] = test system: fungal strains (Candida spp., Cryptococcus spp., Aspergillus spp., Fusarium spp.); test: MIC determination, summary statements over the strain panel; format: cell-based; details: for overall assessment as antifungals: panel of twenty fungal strains (Table 1)
[19] = test system: four mammalian cell lines (A549, BEAS-2B, HEK-293, J774A.1); test: Mammalian cytotoxicity assays, summary over cell lines; format: cell-based; details: for cell survival: at 15.6 μg/mL, excluding auranofin with J774A.1
Source text: For cytotoxicity assays, the human embryonic kidney cell line (HEK-293) was purchased from the ATCC. The human bronchial epithelial cell line (BEAS-2B), the human lung carcinoma cell line (A549), and the mouse macrophage cell line (J774A.1) were generous gifts from Prof. David K. Orren (University of Kentucky, Lexington, Ky.), Prof. Markos Leggas (University of Kentucky, Lexington, Ky.), and Prof. David J. Feola (University of Kentucky, Lexington, Ky.), respectively. A549, HEK-293, and BEAS-2B cells were cultured in Dulbecco's Modified Eagle's Medium (DMEM, catalog #VWRL0100, VWR, Chicago, Ill.) supplemented with 10% fetal bovine serum (FBS; from ATCC) and 1% penicillin/streptomycin (from ATCC) at 37° C. with 5% CO2. The J774A.1 cells were cultured in DMEM (catalog #30-2002, ATCC, Manassas, Va.), which was also supplemented with FBS and antibiotics and grown at 37° C. with 5% CO2.
To examine whether the compounds are safe for human cells, cytotoxicity assays were done against four mammalian cell lines: HEK-293, A549, BEAS-2B, and J774A.1 cells. […] HEK-293 and J774A.1 cells were plated at 1×10^4 cells/mL while A549 and BEAS-2B were plated at 3×10^3 cells/mL. Compounds were tested in concentrations ranging from 0.06 to 15.6 μg/mL with final concentration of DMSO at 0.5% (FIG. 4A-D).

Substance | MIC [1] [µg/mL] | MIC (in parentheses) [1] [µM] | MIC [2] [µg/mL] | MIC (in parentheses) [2] [µM] | MIC [3] [µg/mL] | MIC (in parentheses) [3] [µM] | MIC [4] | MIC (in parentheses) [4] [µM] | MIC [5] [µg/mL] | MIC (in parentheses) [5] [µM] | MIC [6] [µg/mL] | MIC (in parentheses) [6] [µM] | MIC [7] [µg/mL] | MIC (in parentheses) [7] [µM] | MIC [8] [µg/mL] | MIC (in parentheses) [8] [µM] | MIC [9] [µg/mL] | MIC (in parentheses) [9] [µM] | MIC [10] [µg/mL] | MIC (in parentheses) [10] [µM] | also measured
bis-[1,2-bis[(2R,5R)-2,5-dimethylfphospholano]benzene]gold(1) [Compound 6] | 0.49 | 0.6 | 0.98 | 0.6 | 0.49 | 0.6 | 1.95 µg/mL | 2.3 | 1.95 | 2.3 | 0.25 | 0.3 | 0.49 | 0.6 | 3.9 | 4.6 | 3.9 | 4.6 | 3.9 | 4.6 | MIC [11]: 0.98 µg/mL; MIC (in parentheses) [11]: 1.2 µM; MIC [12]: 3.9 µg/mL; MIC (in parentheses) [12]: 4.6 µM; MIC [13]: 1.95 µg/mL; MIC (in parentheses) [13]: 2.3 µM; MIC [14]: 1.95 µg/mL; MIC (in parentheses) [14]: 2.3 µM; MIC [15]: 1.95 µg/mL; MIC (in parentheses) [15]: 2.3 µM; SMIC90 of pre-formed biofilm relative to MIC with planktonic cells [16]: 4 fold; Pre-formed biofilm SMIC90 [16]: 3.9 µg/mL; Pre-formed biofilm SMIC90 [17]: 7.8 µg/mL; overall assessment as antifungals [18]: great promise; cell survival [19]: no cell survival
bis-[1,2-bis[(2S,5S)-2,5-dimethylphospholano]benzene]gold(I) [Compound 4] | 0.98 | 1.2 | 1.95 | 2.3 | 0.98 | 1.2 | 3.9 µg/mL and 3.96 µg/mL | 4.6 | 7.8 | 9.2 | 0.98 | 1.2 | 0.98 | 1.2 | 3.9 | 4.6 | 1.95 | 2.3 | 3.9 | 4.6 | MIC [11]: 1.95 µg/mL; MIC (in parentheses) [11]: 2.3 µM; MIC [12]: 1.95 µg/mL; MIC (in parentheses) [12]: 2.3 µM; MIC [13]: 1.95 µg/mL; MIC (in parentheses) [13]: 2.3 µM; MIC [14]: 1.95 µg/mL; MIC (in parentheses) [14]: 2.3 µM; MIC [15]: 1.95 µg/mL; MIC (in parentheses) [15]: 2.3 µM; SMIC90 of pre-formed biofilm relative to MIC with planktonic cells [16]: 4 fold; Pre-formed biofilm SMIC90 [16]: 7.8 µg/mL; Pre-formed biofilm SMIC90 [17]: 15.6 µg/mL; overall assessment as antifungals [18]: great promise; antifungal activity class ([18]; two C. auris strains (K and L)): good (MIC = 3.9-7.8 μg/mL (good antifungal activity)); pIC50 ([19]; BEAS-2B, HEK-293, and J774A.1, read-out: IC50 values (range over cell lines)): 5.70 to 5.82; cell survival [19]: no cell survival
